According to PMC10447463, “Data-mining unveils structure–property–activity correlation of viral infectivity enhancing self-assembling peptides” (Nature Communications, 2023):
Values joined by “and” are separate entries in the source; they are usually repeats but may differ in a detail not shown here. Equal values may be shown once. Read-outs that look alike come from different tables or passages of the source.

Experiments:
[1] = format: physicochemical; design: key to Fibril / Fibril Formation / TEM 2cat / Fibril: 1 = fibrils present; 0 non-fibrillar structures; details: for Fibril / Fibril Formation: 1 mg/mL, uranyl acetate stain, qualitative
[2] = format: physicochemical; details: for ThT Cat. / ThT-Fluorescence (categorical): ThT-active if fluorescence at least twice the control
In short: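 Preformed peptide fibrils (1 mg/mL) mixed with 50 µM ThT in PBS, 15 min at RT, fluorescence ex 440/em 488 nm versus PBS blank, triplicates. Zeta potential: peptides at 1 mg/mL in PBS pH 7.4, aged 1 d at RT, diluted in 1 mM KCl, Smoluchowski from electrophoretic mobility.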

[3] = β-sheet content by ATR-FT-IR; format: physicochemical; details: for b -sheet / %: Fig. S7 panel A, β-sheet content by ATR-FT-IR
In short: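 To obtain β-sheet content, 1 mg/mL PNF solutions are freeze-dried and the powders recorded by ATR FT-IR at 2 cm^-1 resolution with 64 scans. Free monomer for CR is removed by 3 kDa MWCO centrifugation at 4 °C, and amines in filtrate and unfiltered material are detected with fluorescamine.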

[4] = Conversion rate (CR) assay with fluorescamine; format: physicochemical; design: key to CR: % = 100−100×filtrate/original fluorescence intensity; details: for CR / %: Fig. S7 panel B; for CR / % / CR: conversion rate
In short: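 Peptide monomer conversion into nanostructures was quantified by separating free monomer via 3 kDa ultrafiltration, then labelling amines in filtrate and whole sample with fluorescamine in DMSO. CR was derived as 100 − 100 × (filtrate/original fluorescence), triplicate means with SD.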

[5] = FigS12 panel A, fibril category by TEM
[6] = TEM, 1 = fibrils present, 0 = non-fibrillar
[7] = TEM, 1 = fibrils present, 0 = non-fibrillar structures
[8] = category: fibrils present or non-fibrillar

Substance | TEM 2cat ([1]; Fig S10 panel D) | Fibril ([1]; Fig S10 panel E) | TEM 2cat [1, 5] | Fibril ([1]; FigS12 panel B, TEM) | Fibril / Fibril Formation ([1]; TEM) | Fibril [1, 6] | Fibril [1, 7] | Tht category (> 2 to blank = +) ([2]; Fig S10 panel D) | ThT Cat. ([2]; Fig S10 panel E) | Tht category (> 2 to blank = +) ([2]; FigS12 panel A) | ThT Cat, ([2]; FigS12 panel B) | ThT Cat, ([2]; ThT category, 1 if Rel. ThT >2) | ThT Cat. ([2]; ThT category, 1 if Rel. ThT >2) | ThT Cat. / ThT-Fluorescence (categorical) [2] | b -sheet / % [3] [%] | CR / % ([4]; fluorescamine assay) [%] | CR ([4]; fluorescamine assay) | TEM 2cat [1, 8] | further results
MDQMDQMDQMDQMDQ | 0 | 0 | 0 | 0 | 0 | 0 | 0 | 0 (ThT-inactive (N-Fold <2)) | 0 (ThT-inactive (N-Fold <2)) | 0 (ThT-inactive (N-Fold <2)) | 0 (ThT-inactive (N-Fold <2)) | 0 (ThT-inactive (N-Fold <2)) | 0 (ThT-inactive (N-Fold <2)) | 0 (ThT-inactive (N-Fold <2)) | 46.09 | 53 | 53.03 |  | 
MKFKFQF | 1 | 1 | 1 | 1 | 1 | 1 | 1 | 0 (ThT-inactive (N-Fold <2)) | 0 (ThT-inactive (N-Fold <2)) | 0 (ThT-inactive (N-Fold <2)) | 0 (ThT-inactive (N-Fold <2)) | 0 (ThT-inactive (N-Fold <2)) | 0 (ThT-inactive (N-Fold <2)) | 0 (ThT-inactive (N-Fold <2)) | 21.97 | 86.9 | 86.86 |  | 
QCKFKFQFNM | 1 | 1 |  |  | 1 | 1 | 1 | 1 (ThT. Cat is 1, if Rel. ThT >2) | 1 (ThT. Cat is 1, if Rel. ThT >2) |  |  | 1 (ThT. Cat is 1, if Rel. ThT >2) | 1 (ThT. Cat is 1, if Rel. ThT >2) | 1 (ThT. Cat is 1, if Rel. ThT >2) | 37.29 | 98.9 | 98.94 | 1 | 
QCKFKFQFNMWQ | 1 | 1 |  |  | 1 | 1 | 1 | 0 (ThT-inactive (N-Fold <2)) |  |  |  | 0 (ThT-inactive (N-Fold <2)) | 0 (ThT-inactive (N-Fold <2)) | 0 (ThT-inactive (N-Fold <2)) | 47.0491 | 98.9 | 98.91 | 1 | 
QCKIKIQINMWQ | 1 | 1 |  |  | 1 | 1 | 1 | 1 (ThT. Cat is 1, if Rel. ThT >2) | 1 (ThT. Cat is 1, if Rel. ThT >2) |  |  | 1 (ThT. Cat is 1, if Rel. ThT >2) | 1 (ThT. Cat is 1, if Rel. ThT >2) | 1 (ThT. Cat is 1, if Rel. ThT >2) | 36.23 | 93.7 | 93.68 | 1 | 
QCKIKQIINMWQ [reference compound] | 1 | 1 |  |  | 1 | 1 | 1 | 1 (ThT. Cat is 1, if Rel. ThT >2) | 1 (ThT. Cat is 1, if Rel. ThT >2) |  |  | 1 (ThT. Cat is 1, if Rel. ThT >2) | 1 (ThT. Cat is 1, if Rel. ThT >2) | 1 (ThT. Cat is 1, if Rel. ThT >2) | 51.73 | 77 | 76.98 | 1 | TEM: 1= fibrils, 0= aggregates (micelle), 0.5 = aggregates and fibrils, -1 = nothing obersved, STD prep ([1]; STD prep): 0.5; Tht rel to blank (42.1851851851852) ([2]; ThT fluorescence relative to blank (42.1851851851852 a.u.)): 3.802; Tht rel to blank (42.1851851851852) ([2]; ThT fluorescence relative to blank, blank = 42.1851851851852): 3.802; Tht category (> 1.5 to blank = +) ([2]; category 1/0): 1 (ThT. Cat is 1, if Rel. ThT >2); Tht rel to blank (42.1851851851852) ([2]; relative to blank 42.1851851851852 a.u.): 3.802; FTIR ß-sheet content/ % [3]: 39.05%; FTIR ß-sheet content/ % ([3]; ATR-FT-IR, listed as EF-C): 39% and 39.05%; Conversion Rate / % [4]: 76.98%; Conversion Rate / % ([4]; fluorescamine assay): 76.98%
RGDKIRGDKI | 0 | 0 | 0 | 0 | 0 | 0 | 0 | 0 (ThT-inactive (N-Fold <2)) | 0 (ThT-inactive (N-Fold <2)) | 0 (ThT-inactive (N-Fold <2)) | 0 (ThT-inactive (N-Fold <2)) | 0 (ThT-inactive (N-Fold <2)) | 0 (ThT-inactive (N-Fold <2)) | 0 (ThT-inactive (N-Fold <2)) | 15.01 | 48.4 | 48.38 |  | 
RGECKFKFQF | 1 | 1 |  |  | 1 | 1 | 1 | 1 (ThT. Cat is 1, if Rel. ThT >2) | 1 (ThT. Cat is 1, if Rel. ThT >2) |  |  | 1 (ThT. Cat is 1, if Rel. ThT >2) | 1 (ThT. Cat is 1, if Rel. ThT >2) | 1 (ThT. Cat is 1, if Rel. ThT >2) | 46.18 | 98.7 | 98.71 | 1 | 
RGEKIKIQINM | 1 | 1 |  |  | 1 | 1 | 1 | 1 (ThT. Cat is 1, if Rel. ThT >2) | 1 (ThT. Cat is 1, if Rel. ThT >2) |  |  | 1 (ThT. Cat is 1, if Rel. ThT >2) | 1 (ThT. Cat is 1, if Rel. ThT >2) | 1 (ThT. Cat is 1, if Rel. ThT >2) | 38.16 | 80.3 | 80.28 | 1 | 
RLRLTLC | 1 | 1 | 1 | 1 | 1 | 1 | 1 | 0 (ThT-inactive (N-Fold <2)) | 0 (ThT-inactive (N-Fold <2)) | 0 (ThT-inactive (N-Fold <2)) | 0 (ThT-inactive (N-Fold <2)) | 0 (ThT-inactive (N-Fold <2)) | 0 (ThT-inactive (N-Fold <2)) | 0 (ThT-inactive (N-Fold <2)) | 20.6858 | 87.4 | 87.44 |  | 
